Laboratory results reported in patent US20250387424A1, “PHARMACEUTICAL COMPOSITION COMPRISING A3 ADENOSINE RECEPTOR AGONIST FOR TREATMENT OF PSORIASIS” (CAN-FITE BIOPHARMA LTD., priority 2022, published 2025).

Tests used:
[1] = test system: patients with moderate to severe plaque psoriasis; test: COMFORT-1 phase 3 trial, safety (TEAEs, ECG); details: for serious TEAE (number): not considered drug related; for tolerability: 32-week study period
Source text: The COMFORT-1 study was a phase 3 multicenter (with sites in Bosnia, Bulgaria, Canada, Israel, Moldova, Poland, Romania, and Serbia) randomized, double-blind, controlled clinical trial in moderate-to-severe plaque psoriasis (ClinicalTrials.gov identifier: NCT03168256). […] Eligible patients were randomly assigned to these arms in a 3:3:3:2 ratio. Blinding was maintained using a double-dummy technique. The second segment (Weeks 16-32) included 3 treatment arms, as at Week 16, the patients in the placebo arm were re-randomized to piclidenoson 2 mg BID, piclidenoson 3 mg BID, or apremilast (dose-titrated over 6 days to 30 mg BID) in a 1:1:1 ratio and treated through Week 32. Those originally assigned to piclidenoson or apremilast remained on their initially assigned treatment through Week 32. Blinding was maintained through Week 32. Patients were evaluated every 2 weeks for efficacy and safety.
Safety assessments included treatment emergent adverse events (TEAEs) and changes in vital signs, physical examination, clinical laboratory tests (liver, kidney, hematology, chemistry, and urinalysis), and electrocardiogramdings.
Overall, 4 analysis populations were defined: The safety population included all patients who received ≥1 dose of piclidenoson; the intent-to-treat (ITT) population included all those in the safety population with at least one PASI score recorded post-BL and excluded patients who withdrew prior to Week 16 due to COVID-19-related study suspension; the modified ITT (mITT) population, which was used for the Week 16 efficacy analyses, included all ITT patients except one patient in the placebo arm who was excluded due to major protocol violations that were not captured in the original data; and lastly, the per protocol (PP) population, which was used for the Week 32 analyses, and included all ITT patients who had no major protocol violations on or before Week 16 and who completed Week 16 of the study. Exclusion from the PP population was finalized prior to any unblinded analyses. The analyses conducted for Week 32 were performed separately for patients who were initially randomized to piclidenoson or apremilast and for those who were initially randomized to the placebo group.
Descriptive statistics were used to summarize patient characteristics and safety. […] If a patient had more than one TEAE with the same PT, the patient was counted once.

[2] = test system: patients with moderate to severe plaque psoriasis; test: COMFORT-1 phase 3 trial, efficacy (PASI, PGA2, PDI); type: in vivo, human
[3] = COMFORT-1 phase 3 trial, pharmacokinetics (Cmax, AUC); type: in vivo, human; details: 2 mg BID arm compared with 3 mg BID arm; Weeks 0, 8, 16
Procedure: The trial had 2 segments (FIG. 1). […] Blinding was maintained through Week 32.
The primary endpoints included the proportion of patients achieving PASI 75 in the piclidenoson 2 mg and 3 mg BID arms vs. placebo at Week 16 (superiority) and safety. Secondary endpoints at Week 16 compared the piclidenoson arms to placebo and included the proportion of patients achieving PASI 50, the proportion of patients achieving a score of 0 or 1 in PGA2 (a PASI-based measure calculated using the intensity grading of components of the PASI score; specifically, it is the average of the PASI erythema, infiltration, and desquamation scores) [Gordon, K. B. et al. N Engl J Med 373, 136-144 (2015)], and the proportion of patients experiencing an improvement from BL in Psoriasis Disability Index (PDI). Additional secondary endpoints were evaluated at Week 32 and compared the piclidenoson arms to apremilast. These included the proportion of patients achieving PASI 75, PASI 50, PGA2 of 0 or 1, and the proportion of patients experiencing an improvement from BL in PDI. PK analysis, including calculating the peak concentration of the drug in the bloodstream after administration (Cmax), was conducted for Weeks 0, 8, and 16.

[4] = apremilast 30 mg BID, Weeks 0-32, safety population N = 177
[5] = apremilast 30 mg BID, Week 32, PP population
[6] = piclidenoson 2 mg BID, Weeks 0-32, safety population N = 179
[7] = piclidenoson 3 mg BID, Weeks 0-32, safety population N = 173

CCOc1cc([C@@H](CS(C)(=O)=O)N2C(=O)c3cccc(NC(C)=O)c3C2=O)ccc1OC [Apremilast, apremilast, reference compound]
Incidence of TEAE: GI disorders: Any [1, 4]: 7.3%
Incidence of TEAE: Nervous system: Any [1, 4]: 9.6%
serious TEAE (number) ([1]; apremilast 30 mg BID, pneumonia): 1
patients who withdrew from the study due to TEAEs ([1]; apremilast arm, Weeks 0-32): 1
patients achieving improvement from baseline in PDI (number/arm total) [2, 5]: 59/108
proportion of patients achieving PASI 50 [2, 5]: 25.2%
proportion of patients achieving improvement from BL in PDI [2, 5]: 55.1%
proportion of patients with PGA2 of 0 or 1 [2, 5]: 24.3%
proportion of patients achieving PASI 75 ([2]; apremilast 30 mg BID, Week 32, PP population, initially randomized to active treatment): 26.2%

CNC(=O)[C@H]1O[C@@H](n2cnc3c(NCc4cccc(I)c4)ncnc32)[C@H](O)[C@@H]1O [Piclidenoson, methyl 1-[N^6-(3-iodobenzyl)-adenin-9-yl]-β-D-ribofuronamide]
safety profile ([1]; 3 mg dose of piclidenoson): excellent and better than apremilast
safety profile compared with placebo ([1]; both piclidenoson dosages, placebo used only Week 0 through Week 16): generally comparable to that of placebo
safety profile compared with apremilast ([1]; piclidenoson 2 mg BID and 3 mg BID): more favorable than that of apremilast
patients who withdrew from the study due to TEAEs ([1]; piclidenoson 2 mg BID arm, Weeks 0-32): 2
tolerability ([1]; piclidenoson 2 mg BID): well-tolerated
Incidence of TEAE: GI disorders: Any [1, 6]: 2.8%
Incidence of TEAE: Infections/infestations: Nasopharyngitis [1, 6]: 2.2%
Incidence of TEAE: Infections/infestations: Urinary tract infection [1, 6]: 3.4%
Incidence of TEAE: Nervous system: Any [1, 6]: 1.7%
serious TEAE (number) ([1]; piclidenoson 2 mg BID, arterial embolism): 1
patients who withdrew from the study due to TEAEs ([1]; piclidenoson 3 mg BID arm, Weeks 0-32): 5
tolerability ([1]; piclidenoson 3 mg BID): well-tolerated
Incidence of TEAE: GI disorders: Any [1, 7]: 1.2%
Incidence of TEAE: Infections/infestations: Nasopharyngitis [1, 7]: 2.9%
Incidence of TEAE: Nervous system: Any [1, 7]: 1.7%
serious TEAE (number) ([1]; piclidenoson 3 mg BID, osteomyelitis): 1
proportion of patients achieving PGA2 (0 or 1) ([2]; piclidenoson 2 mg BID, Week 16, mITT population, p=0.027 vs placebo): 11.8%±2.8%
proportion of patients achieving PASI 50 ([2]; piclidenoson 2 mg BID, Week 16, mITT population, p=0.060 vs placebo): 26.0%
proportion of patients achieving PASI 75 ([2]; piclidenoson 2 mg BID, Week 16, mITT population, p=0.075 vs placebo): 7.9%±2.4%
proportion of patients achieving PDI improvement from BL ([2]; piclidenoson 2 mg BID, Week 16, mITT population, p=0.70 vs placebo): 63.3%
proportion of patients achieving PASI 75 ([2]; piclidenoson 2 mg BID, Week 32, PP population, initially randomized to active treatment, noninferiority vs apremilast p=0.429): 20.8%
proportion of patients with PGA2 of 0 or 1 ([2]; piclidenoson 2 mg BID, Week 32, PP population, noninferiority vs apremilast p=0.417): 18.9%
proportion of patients achieving improvement from BL in PDI ([2]; piclidenoson 2 mg BID, Week 32, PP population, noninferiority vs apremilast p=0.66): 48.1%
proportion of patients achieving PASI 50 ([2]; piclidenoson 2 mg BID, Week 32, PP population, noninferiority vs apremilast p=0.75): 17.0%
proportion of patients achieving PASI 75 ([2]; piclidenoson 3 mg BID, Week 16, mITT population, p=0.037 vs placebo): 9.7%±1.8%
proportion of patients achieving PASI 75 ([2]; piclidenoson 3 mg BID, Week 16, mITT population, p=0.037 vs placebo, listed as piclidenoson): 9.7%
proportion of patients achieving PGA2 (0 or 1) ([2]; piclidenoson 3 mg BID, Week 16, mITT population, p=0.068 vs placebo): 10.7%±3.0%
proportion of patients achieving PASI 50 ([2]; piclidenoson 3 mg BID, Week 16, mITT population, p=0.475 vs placebo): 19.4%
proportion of patients achieving PDI improvement from BL ([2]; piclidenoson 3 mg BID, Week 16, mITT population, p=1.00 vs placebo): 58.3%
patients achieving improvement from baseline in PDI (number/arm total) ([2]; piclidenoson 3 mg BID, Week 32, PP population): 51/88
proportion of patients achieving PASI 75 ([2]; piclidenoson 3 mg BID, Week 32, PP population, initially randomized to active treatment, noninferiority vs apremilast p=0.881): 17.0%
proportion of patients achieving improvement from BL in PDI ([2]; piclidenoson 3 mg BID, Week 32, PP population, noninferiority vs apremilast p=0.072): 58.0%
proportion of patients achieving PASI 50 ([2]; piclidenoson 3 mg BID, Week 32, PP population, noninferiority vs apremilast p=0.49): 19.3%
proportion of patients with PGA2 of 0 or 1 ([2]; piclidenoson 3 mg BID, Week 32, PP population, noninferiority vs apremilast p=0.777): 15.9%
exposure as measured by both Cmax and AUC [3]: similar
